Assay results published in patent US20220041559A1, “BENZO-AND PYRIDO-PYRAZOLES AS PROTEIN KINASE INHIBITORS” (ROTTAPHARM BIOTECH S.R.L., priority 2019, published 2022).
pIC50: −log10 of the molar value.

Tests used:
[1] = molecular target: human FynB (Homo sapiens, UniProt P06241); test: Inhibition of FynB-induced Tau(Y18)-phosphorylation (cell-based assay, HEK293); conditions: for pIC50: HEK293 over-expressing FynB and Tau 0N4R, incubation 6 or 24 hours, ELISA; for Inhibition of FynB-induced Tau(Y18)-phosphorylation, result in words: summary of Table 20
Chain of human FynB (P06241 271-524 limits assumed): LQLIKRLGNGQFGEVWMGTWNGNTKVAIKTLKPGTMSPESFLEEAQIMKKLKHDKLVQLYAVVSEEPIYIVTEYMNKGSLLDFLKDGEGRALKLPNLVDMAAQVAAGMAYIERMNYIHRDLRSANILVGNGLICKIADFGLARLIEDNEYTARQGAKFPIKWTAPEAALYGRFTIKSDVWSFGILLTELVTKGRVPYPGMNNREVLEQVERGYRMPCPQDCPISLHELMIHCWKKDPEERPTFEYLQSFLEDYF
Method: HEK293 cells (Human Embryonic Kidney 293) were seeded at 6×10^5 in poly-D-lysine 12 w microplates and grown adherent in medium DMEM/10% FBS at 37° C. with 5% CO2. After 24 h, cells were transfected in order to over-express either constitutively active form of human FynB and Tau protein (isoform 0N4R), through an optimized Lipofectamine® 3000 Transfection protocol (Life Technologies™). A non-transfected sample (negative control) was included in every experiment.
Twenty-four hours from transfection, treatments of cells were performed by adding fresh medium containing diluent (DMSO 0.1% final concentration) or test compounds. The incubation was carried out for 6 or 24 hours at 37° C. with 5% CO2. All experimental conditions were performed in duplicate.
At the end of the incubation, the medium was removed and cellular lysates were obtained by adding M-PER lysis buffer containing a 1× Protease/Phosphatase inhibitors cocktail. Then, lysates were transferred into Eppendorf tubes, sonicated and stored at −80° C.
Protein content was measured by Bradford method. Lysates were analyzed by a customized ELISA assay for Tau phosphorylation (Tyrosine 18 residue-Fyn mediated) and Total amount determination. The net OD values were used to calculate the inhibitory effect of compounds.

[2] = molecular target: EGFR (Homo sapiens, UniProt P00533); test: ADP-Glo in vitro kinase assay, EGFR kinase inhibition; assay type: biochemical; parameters: purchased SignalChem; conditions: for pIC50: ATP 10 μM, 30 minutes at room temperature; for EGFR kinase inhibition, result in words: text summary of Table 18
Chain of EGFR (P00533 25-1210): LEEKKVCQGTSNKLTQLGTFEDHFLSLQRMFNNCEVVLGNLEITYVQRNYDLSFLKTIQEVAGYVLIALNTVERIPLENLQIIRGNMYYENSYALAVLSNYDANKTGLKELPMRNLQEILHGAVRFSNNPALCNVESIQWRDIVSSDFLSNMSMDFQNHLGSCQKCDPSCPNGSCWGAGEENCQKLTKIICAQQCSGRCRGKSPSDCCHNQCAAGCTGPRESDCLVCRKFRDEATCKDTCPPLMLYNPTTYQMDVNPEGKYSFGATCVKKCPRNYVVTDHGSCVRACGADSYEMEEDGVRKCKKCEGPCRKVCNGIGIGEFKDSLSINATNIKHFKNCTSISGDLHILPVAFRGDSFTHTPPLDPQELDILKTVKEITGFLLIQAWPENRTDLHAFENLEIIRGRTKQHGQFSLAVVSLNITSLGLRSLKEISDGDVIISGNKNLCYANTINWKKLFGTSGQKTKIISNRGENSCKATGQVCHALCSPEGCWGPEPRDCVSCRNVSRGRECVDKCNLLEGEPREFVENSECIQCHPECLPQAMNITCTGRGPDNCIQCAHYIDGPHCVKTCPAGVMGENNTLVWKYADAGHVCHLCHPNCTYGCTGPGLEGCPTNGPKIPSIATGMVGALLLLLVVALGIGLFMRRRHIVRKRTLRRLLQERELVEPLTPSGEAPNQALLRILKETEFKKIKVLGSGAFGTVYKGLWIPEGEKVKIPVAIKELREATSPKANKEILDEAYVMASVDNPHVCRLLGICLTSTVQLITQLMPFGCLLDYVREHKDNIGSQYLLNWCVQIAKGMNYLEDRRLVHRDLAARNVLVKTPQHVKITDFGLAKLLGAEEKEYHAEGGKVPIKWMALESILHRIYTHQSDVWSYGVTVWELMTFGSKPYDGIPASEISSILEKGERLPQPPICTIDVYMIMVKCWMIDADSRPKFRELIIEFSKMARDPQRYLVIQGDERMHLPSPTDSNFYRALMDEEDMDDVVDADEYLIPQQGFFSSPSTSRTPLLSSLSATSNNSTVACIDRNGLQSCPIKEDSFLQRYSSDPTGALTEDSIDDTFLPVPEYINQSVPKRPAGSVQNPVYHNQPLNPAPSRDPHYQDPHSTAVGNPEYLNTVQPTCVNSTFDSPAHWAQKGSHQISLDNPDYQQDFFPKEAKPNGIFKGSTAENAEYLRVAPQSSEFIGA
Method: (§1) The ADP-Glo™ Kinase Assay (Promega), monitoring ADP produced in the kinase reaction, was performed in two steps. In the first one, after the kinase reaction, the ADP-Glo™ Reagent is added to terminate the kinase reaction and deplete the remaining ATP. In the second step, the Kinase Detection Reagent is added to simultaneously convert ADP to ATP (ATPn or newly synthesized ATP) and introduce luciferase and luciferin, allowing the ATPn to be measured (luciferase/luciferin reaction). The amount of light generated correlates with the amount of ATPn (indirectly with the ADP produced in kinase reaction).
(§2) Kinase reaction was performed in 10 μl in a white 384-well plate, inhibitor solutions in DMSO/Kinase buffer (40 mM Tris-Cl, 20 mM MgCl2, 0.1 mg/ml BSA, 50 μM DTT, pH 7.5) and EGFR kinase in Kinase buffer (SignalChem, 2.5 ng/μl final concentration in assay) were pre-incubate 15 minutes at room temperature. At the kinase concentration selected a signal-to negative control ratio >10 was calculated, according to supplier indication. In samples representing the Total enzymatic activity (no inhibitor) or the negative control (no enzyme), inhibitor solution was replaced by diluents (1 DMSO in kinase buffer, final concentration) or ultra-pure water, respectively.
(§3) The range of inhibitor concentrations was from 10^−11 M up to 3×10^−6 M (final concentration in assay) and each experimental point was performed in duplicate.
(§4) To start the reaction, a substrate/ATP mix (ATP 10 μM final concentration, near to ATP Km value) was added to each sample and after 30 minutes incubation at room temperature, ADP-Glo™ Reagent and Kinase Detection Reagent, incubated in sequence according to the respective incubation time and supplier indication, allowed to stop and develop the kinase reaction. The luminescence was measured with a plate-reading luminometer (Envision 2104 Multilabel reader, PerkinElmer). The percentage of inhibition was calculated towards the Total enzymatic activity and the corresponding curves were analyzed by non linear curve fitting (GraphPad software, version 7 for Windows), allowing to calculate the IC50 value±standard error of the estimate.

[3] = molecular target: T1, FYN (Homo sapiens, UniProt P06241); test: Z'-LYTE in vitro kinase assay, FYN kinase inhibition; assay type: biochemical; conditions: for pIC50: near-Km ATP, 60 minutes at 25° C.
T1 construct: purchased CarnaBioscience
T1 sequence (P06241 whole entry): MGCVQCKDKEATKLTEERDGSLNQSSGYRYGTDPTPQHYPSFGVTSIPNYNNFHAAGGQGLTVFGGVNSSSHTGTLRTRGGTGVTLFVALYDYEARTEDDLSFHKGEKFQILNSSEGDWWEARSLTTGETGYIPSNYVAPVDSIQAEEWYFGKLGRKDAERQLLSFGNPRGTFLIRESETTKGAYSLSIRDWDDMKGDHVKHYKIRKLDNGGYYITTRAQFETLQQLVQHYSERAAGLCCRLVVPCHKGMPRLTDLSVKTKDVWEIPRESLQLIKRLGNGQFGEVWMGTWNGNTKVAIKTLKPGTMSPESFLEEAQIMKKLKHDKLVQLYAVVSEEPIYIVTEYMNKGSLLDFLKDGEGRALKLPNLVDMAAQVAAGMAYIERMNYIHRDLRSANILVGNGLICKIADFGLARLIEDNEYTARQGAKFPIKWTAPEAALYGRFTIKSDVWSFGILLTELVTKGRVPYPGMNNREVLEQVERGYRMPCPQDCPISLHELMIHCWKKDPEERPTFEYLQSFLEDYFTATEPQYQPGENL
Method: Assays to determine the kinase inhibitory activity of compounds were performed using an automatic liquid handling device (Microlab STAR Hamilton) and Z′-LYTE™ Kinase Assay Platform (Invitrogen), a Fluorescence Resonance Energy Transfer (FRET)-based assay platform compatible with high-throughput screening (HTS) applications. The assay employs a fluorescence-based, coupled-enzyme format and utilizes the differential sensitivity of phosphorylated and non-phosphorylated peptides to proteolytic cleavage.
Test compounds were evaluated towards active FYN (CarnaBioscience). The enzyme was incubated in a 384 low-volume microplate with a synthetic peptide-substrate, ATP and different inhibitor concentrations, ranging from 10^−10 M up to 10^−5 M final concentration. Samples representing the 0% inhibition (or total enzymatic activity) were in the presence of compound diluent (1% DMSO final) in Reaction Buffer (50 mM Hepes, 10 mM MgCl2, 1 mM EGTA, 0.01% Brij-35, pH 7.5).
A near-Km ATP concentrations for the kinase and an optimal enzyme concentration that phosphorylates 20-40% of the Z′-LYTE™ Tyr 2 Peptide in a one-hour incubation, were selected. All reagents were diluted in reaction buffer and the kinase reaction was carried out in a total volume of 10 μl, for 60 minutes at 25° C. The 0% Phosphorylation (i.e. no ATP) and 100% Phosphorylation (i.e. synthetically phosphorylated peptide supplied) Assay Controls, included in each plate, allowed to calculate the percent phosphorylation achieved in the specific reaction well. The 0% Inhibition and 0% Phosphorylation (i.e. 100% Inhibition) Controls define the dynamic range in the screen. At the end of incubation, a secondary reaction (the Development Reaction) started by adding 5 μl of Development Reagent, containing a site-specific protease that recognizes and cleaves non-phosphorylated peptides, and was interrupted after 60 minutes with 5 μl/sample of Stop Reagent. Measurement of the Coumarin (Ex. 400 nm, Em. 460 nm) and Fluorescein (Ex. 400 nm, Em. 535 nm) emission signals were performed by a fluorescence plate reader (Envision, PerkinElmer).
Results are expressed as percentage of inhibition and the IC50 values were calculated by non-linear curve fitting using GraphPad™ Prism software.

[4] = molecular target: T2, VEGFR2 (KDR) kinase (Homo sapiens, UniProt P35968); test: ADP-Glo in vitro kinase assay, VEGFR2 kinase inhibition; assay type: biochemical; conditions: for pIC50: ATP 50 μM, 30 minutes at room temperature; for VEGFR2 kinase inhibition, result in words: Table 19
T2 construct: purchased SignalChem
T2 sequence (P35968 20-1356): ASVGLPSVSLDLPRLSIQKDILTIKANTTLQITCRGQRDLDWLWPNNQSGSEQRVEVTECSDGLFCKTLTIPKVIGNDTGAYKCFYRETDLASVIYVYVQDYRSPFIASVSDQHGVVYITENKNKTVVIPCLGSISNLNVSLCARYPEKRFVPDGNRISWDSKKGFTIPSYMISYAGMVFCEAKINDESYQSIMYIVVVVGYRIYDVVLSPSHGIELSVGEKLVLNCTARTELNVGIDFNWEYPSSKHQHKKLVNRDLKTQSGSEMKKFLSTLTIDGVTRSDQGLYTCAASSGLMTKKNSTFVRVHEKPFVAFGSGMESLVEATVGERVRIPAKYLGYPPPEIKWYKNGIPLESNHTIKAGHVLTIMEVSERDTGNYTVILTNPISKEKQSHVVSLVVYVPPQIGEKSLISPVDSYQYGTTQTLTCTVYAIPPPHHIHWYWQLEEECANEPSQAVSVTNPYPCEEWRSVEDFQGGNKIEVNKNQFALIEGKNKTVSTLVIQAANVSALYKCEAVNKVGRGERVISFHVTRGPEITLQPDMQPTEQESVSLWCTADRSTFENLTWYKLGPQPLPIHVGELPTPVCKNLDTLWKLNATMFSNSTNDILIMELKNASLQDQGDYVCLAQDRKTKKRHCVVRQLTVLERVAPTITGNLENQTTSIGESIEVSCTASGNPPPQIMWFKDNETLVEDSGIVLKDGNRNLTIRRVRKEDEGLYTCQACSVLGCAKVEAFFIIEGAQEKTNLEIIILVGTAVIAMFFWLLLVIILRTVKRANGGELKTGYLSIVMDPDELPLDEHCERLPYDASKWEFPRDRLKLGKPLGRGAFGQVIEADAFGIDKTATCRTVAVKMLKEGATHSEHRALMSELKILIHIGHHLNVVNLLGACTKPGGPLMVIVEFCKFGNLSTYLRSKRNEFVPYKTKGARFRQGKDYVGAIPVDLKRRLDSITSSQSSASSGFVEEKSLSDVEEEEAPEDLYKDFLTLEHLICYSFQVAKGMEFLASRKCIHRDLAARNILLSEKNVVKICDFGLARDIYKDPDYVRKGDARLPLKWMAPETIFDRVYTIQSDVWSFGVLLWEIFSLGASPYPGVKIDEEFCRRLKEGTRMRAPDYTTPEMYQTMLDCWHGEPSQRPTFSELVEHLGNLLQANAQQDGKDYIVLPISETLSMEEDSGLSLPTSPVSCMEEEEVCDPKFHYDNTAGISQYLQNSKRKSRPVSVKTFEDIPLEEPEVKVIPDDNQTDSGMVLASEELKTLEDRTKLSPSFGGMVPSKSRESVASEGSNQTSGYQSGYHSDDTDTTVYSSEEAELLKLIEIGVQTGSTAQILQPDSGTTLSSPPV
Method: as §1
as §2, with “VEGFR2 (KDR)” for “EGFR”, “0.5” for “2.5”, “selected,” for “selected”, “activity” for “activity (no inhibitor)”
as §3
as §4, with “(50” for “(ATP 10”, “value” for “estimate.”

[5] = tested on: U87MG; test: Cell viability, ViaCount assay, U87MG; assay type: cell-based, human; conditions: tested cell lines (U87MG, U373)
Method: U87MG: a human glioblastoma astrocytoma from ATCC. Grown in DMEM medium supplemented with 10% FBS at 37° C. with CO2.
Cell viability and total cell count was performed with ViaCount Assay on Guava® Systems, which was able to distinguish viable and non-viable cells based on differential permeabilities of two DNA-binding dyes in the Guava ViaCount® Reagent. 2×10^4 cancer cells were plated in 24 well in DMEM 10%. After 72 h cells were treated with the different compounds for 24, 72 h or 7 days, with a medium change and a second treatment with the product on day 4. At the end of the incubation period the analysis was done following the kit instructions.

pIC50 [1] | Inhibition of FynB-induced Tau(Y18)-phosphorylation, result in words [1] | pIC50 [2] | EGFR kinase inhibition, result in words [2] | pIC50 [3] | pIC50 [4] | FYN kinase inhibition, result in words ([3]; Table 17) | VEGFR2 kinase inhibition, result in words [4] | SMILES | reduction of cell viability, result in words [5]
6.63 | best inhibitors | 8.05 | more active | 6.68 | 6.98 | – | – | CN1CCC(c2ccc(C(=O)Nc3n[nH]c4nc(Nc5cccc(F)c5F)ccc34)cc2)CC1 [Compound 20, N-(6-((2,3-difluorophenyl)amino)-1H-pyrazolo[3,4-b]pyridin-3-yl)-4-(1-methylpiperidin-4-yl)benzamide] | –
6.64 | – | ≤ 6.00 | – | 6.95 | 8.59 | – | – | Cc1ccc(Nc2ccc3c(NC(=O)c4ccc(C5CCN(C)CC5)cc4)n[nH]c3n2)cc1 [Compound 23, 4-(1-methylpiperidin-4-yl)-N-(6-(p-tolyamino)-1H-pyrazolo[3,4-b]pyridin-3-yl)benzamide] | –
5.75 | – | – | – | 6.62 | – | – | – | COCCN1CCC(c2ccc(C(=O)Nc3n[nH]c4nc(Nc5ccccc5F)ccc34)cc2)CC1 [Compound 25, N-(6-((2-fluorophenyl)amino)-1H-pyrazolo[3,4-b]pyridin-3-yl)-4-(1-(2-methoxyethyl)piperidin-4-yl)benzamide] | –
7.00 | best inhibitors | ≤ 6.00 | – | 7.14 | 9.00 | more active | more potent | CN1CCC(c2ccc(C(=O)Nc3n[nH]c4nc(Nc5ccc6c(c5)OCO6)ccc34)cc2)CC1 [Compound 28, N-(6-(benzo[d][1,3]dioxol-5-ylamino)-1H-pyrazolo[3,4-b]pyridin-3-yl)-4-(1-methylpiperidin-4-yl)benzamide] | active in reducing cell viability
6.17 | – | 6.81 | – | 6.94 | 9.00 | – | more potent | Cc1ccc(Nc2ccc3c(NC(=O)c4ccc(C5CCN(C)CC5)cc4)n[nH]c3n2)c(F)c1 [Compound 30, N-(6-((2-fluoro-4-methylphenyl)amino)-1H-pyrazolo[3,4-b]pyridin-3-yl)-4-(1-methylpiperidin-4-yl)benzamide] | –
5.73 | – | – | – | 6.99 | – | – | – | COc1ccc(Nc2ccc3c(NC(=O)c4ccc(C5CCN(C)CC5)cc4)n[nH]c3n2)cc1F [Compound 33, N-(6-((3-fluoro-4-methoxyphenyl)amino)-1H-pyrazolo[3,4-b]pyridin-3-yl)-4-(1-methylpiperidin-4-yl)benzamide] | –
6.59 | best inhibitors | 7.82 | more active | 6.67 | 9.00 | – | more potent | CN1CCN(c2ccc(C(=O)Nc3n[nH]c4nc(Nc5ccccc5F)ccc34)cc2)CC1 [Compound 48, N-(6-((2-fluorophenyl)amino)-1H-pyrazolo[3,4-b]pyridin-3-yl)-4-(4-methylpiperazin-1-yl)benzamide] | –
6.19 | – | – | – | 6.77 | – | – | – | CC(=O)N1CCN(c2ccc(C(=O)Nc3n[nH]c4nc(Nc5ccccc5F)ccc34)cc2)CC1 [Compound 52, 4-(4-acetylpiperazin-1-yl)-N-(6((2-fluorophenyl)amino)-1H-pyrazolo[3,4-b]pyridin-3-yl)benzamide] | –
